Test: Substitution in treated hydroxyapatite, mass spectrometry
Source text: The analysis of the samples of treated hydroxyapatite is continued by mass spectrometry. The percentage of calcium substituted by titanium and the percentage of hydroxyl groups substituted by fluorine are compared with those obtained after bringing the hydroxyapatite into contact with the sodium fluoride solution.

## [F-].[Na+] [NaF, Sodium fluoride]
  Substitution of Ca by Ti: 0.3%
  Substitution of OH by F: 52.0%

Source: patent US20050287085A1, “Composition for improving the physico-chemical properties of apatite-based materials, uses thereof and method using same” (DENTSPLY INTERNATIONAL INC., priority 2002, published 2005)
